# PubChem BioAssay AID2060900 (Molecular Pharmacology Branch, DTP, NCI, 2025)
# System: 521955-158-R2-J5-PDC complex spheroids, viability
# Experiment: Anticancer human tumor 521955-158-R2-J5-PDC patient-derived pancreatic carcinoma cell line growth inhibition [RAS]
# Conditions: compound 0.000316 µM; stronger effect = lower value
# Source text: RAS pathway inhibitors in Combinations in Complex Spheroids
# A high-throughput screen of multi-cell type tumor spheroids was designed to identify active combinations of RAS pathway inhibitors and targeted small molecules. Complex spheroids include a stromal component modeled by human endothelial cells (HUVEC) and fibroblasts modeled by human mesenchymal stem cells (MSCs). The concentration ranges selected for each drug and investigational agent were based upon clinically achievable concentrations if the clinical Cmax of the agent was known.
# Compounds. The drugs and investigational agents: abemaciclib (NSC768073), cobimetinib (NSC768068), divarasib (GDC6063, NSC841802), docetaxel (NSC628503), GDC-1971 (RLY-1971, NSC841576), gemcitabine (NSC613327), inavolisib (NSC800729), ipatasertib (NSC767898), KB-0742 (NSC834161), MRTX-1133 (NSC836407), osimertinib (NSC779217), RMC-4630 (NSC839698), RMC-6236 (NSC851965), RMC-6291 (NSC852671), Ro-3306 (NSC812927), sapanisertib (NSC764658), SN-38 (NSC673596), staurosporine (NSC755774), SY5609 (NSC837396), and tovorafenib (DAY101, NSC766906), were obtained from the National Cancer Institute (NCI) Developmental Therapeutics Program Chemical Repository. The FDA-approved anticancer drug set is available from the NCI Developmental Therapeutics Program. […] The stock solutions were prepared in dimethyl sulfoxide (DMSO, Sigma-Aldrich, St. Louis, MO, cat. D2650) at 800-fold the tested concentration and stored at -70 degrees C prior to their use. All drugs and investigational agents were tested over a range starting from a high concentration at or near the clinical Cmax and decreasing in half-log increments. If the clinical Cmax for an agent had not been determined, the highest concentration tested was 10 microM.
# Cell Culture. All cells were maintained in an incubator at 37 degrees C and 5% CO2 with 95% humidity. The PDC lines were cultured according to standard operating procedures established by the NCI PDMR. All PDCs were thawed and cultured in Matrigel-coated flasks prepared with a working solution of 1X Ham's F-12 nutrient mix, without supplementation (Invitrogen, Waltham, MA, cat. 11765054), 100 U/mL penicillin-streptomycin (Invitrogen, cat. 15140122), and 2.5% Matrigel (Corning Inc., Corning, NY, cat. 354248) for the first three passages. The 362531-283-R-J2-PDC and 782815-120-R-J1-PDC lines were cultured in 6C/Colon 1B media, which includes advanced DMEM/F-12 (Thermo Fisher Scientific, cat. 12634028), 10 mM HEPES (Thermo Fisher Scientific, cat. 15630080), 1X GlutaMAX supplement (Thermo Fisher Scientific, cat. 35050061), 0.1 mg/mL primocin (InvivoGen, San Diego, CA, cat. ant-pm-2), 10% defined fetal bovine serum, heat inactivated (HyClone Laboratories Inc., Logan, UT, cat. SH30070.03HI), 50% L-WRN conditioned media (ATCC, cat. CRL-3276), 1.25 mM N-Acetyl-L-cysteine (Sigma-Aldrich, cat. A9165), 10 mM nicotinamide (Sigma-Aldrich, cat. N0636), 1X B-27 supplement (Thermo Fisher Scientific, cat. 17504044), 1X N-2 supplement (Thermo Fisher Scientific, cat. 17502048), 50 ng/mL human EGF (Thermo Fisher Scientific, cat. PHG0311), and 10 microM Y-27632 dihydrochloride (Tocris Bioscience, cat. 1254). The K12877-001-R-J1-PDC line was cultured in 6I media, which includes all 6C/Colon 1B media plus 10 ng/mL human FGF-10 (PeproTech, cat. 100-26), 1 ng/mL human FGF-2 (PeproTech, cat. 100-18B), 1 µM prostaglandin E2 (Tocris Bioscience, cat. 2296), […] hydrocortisone (Sigma-Aldrich, cat. H4001), and […] bovine insulin (Sigma-Aldrich, cat. I6634). The K86415-001-R-J1-PDC line was cultured in 6D media, which includes all 6C/Colon 1B media components minus the L-WRN conditioned media. The 485176-168-R4-J1-PDC was cultured in PANC media, which includes all 6C/Colon 1B media plus 100 ng/mL human FGF-10 (PeproTech, cat. 100-26), 500 nM SB-431542 (Selleckchem, cat. S1067), and 10 nM gastrin (Tocris Bioscience, cat. 3006). […]
# 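Further: spheroids also contain HUVEC endothelial cells and mesenchymal stem cells as stroma; compound exposure lasted seven days before the viability read.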
row,SMILES,"viability, T/C"
1,CC(C)n1nc(-c2ccc3oc(N)nc3c2)c2c(N)ncnc21,94.1% [middle of 4 runs]

# Same assay, conditions: compound 0.000949 µM; stronger effect = lower value
row,SMILES,"viability, T/C"
1,CC1(C)CCC(Nc2ncc(C(F)(F)F)c(-c3c[nH]c4c(P(C)(C)=O)c(C#N)ccc34)n2)CN1 (centres undefined),104% [middle of 4 runs]
2,CCc1c2c(nc3ccc(O)cc13)-c1cc3c(c(=O)n1C2)COC(=O)[C@]3(O)CC,82.5% [middle of 4 runs]
3,CCn1c(-c2cc(N3CCN(C)CC3)cnc2C(C)OC)c2c3cc(ccc31)-c1csc(n1)CC(NC(=O)C1CC1C)C(=O)N1CCCC(N1)C(=O)OCC(C)(C)C2 (centres undefined),46.5% [middle of 8 runs]
4,CCn1c(-c2cccnc2C(C)OC)c2c3cc(ccc31)N1CCOC(CC(NC(=O)C(C(C)C)N(C)C(=O)C3(F)CCN(C(=O)C#CC(C)(C)N(C)C)CC3)C(=O)N3CCCC(N3)C(=O)OCC(C)(C)C2)C1 (centres undefined),101% [middle of 8 runs]

# Same assay, conditions: compound 0.001 µM; stronger effect = lower value
row,SMILES,"viability, T/C"
1,CC(C)n1nc(-c2ccc3oc(N)nc3c2)c2c(N)ncnc21,101% [middle of 4 runs]

# Same assay, conditions: compound 0.003 µM; stronger effect = lower value
row,SMILES,"viability, T/C"
1,CC1(C)CCC(Nc2ncc(C(F)(F)F)c(-c3c[nH]c4c(P(C)(C)=O)c(C#N)ccc34)n2)CN1 (centres undefined),74.5% [middle of 4 runs]
2,CCc1c2c(nc3ccc(O)cc13)-c1cc3c(c(=O)n1C2)COC(=O)[C@]3(O)CC,44.6% [middle of 4 runs]
3,CCn1c(-c2cc(N3CCN(C)CC3)cnc2C(C)OC)c2c3cc(ccc31)-c1csc(n1)CC(NC(=O)C1CC1C)C(=O)N1CCCC(N1)C(=O)OCC(C)(C)C2 (centres undefined),40.6% [middle of 8 runs]
4,CCn1c(-c2cccnc2C(C)OC)c2c3cc(ccc31)N1CCOC(CC(NC(=O)C(C(C)C)N(C)C(=O)C3(F)CCN(C(=O)C#CC(C)(C)N(C)C)CC3)C(=O)N3CCCC(N3)C(=O)OCC(C)(C)C2)C1 (centres undefined),101% [middle of 8 runs]

# Same assay, conditions: compound 0.00316 µM; stronger effect = lower value
row,SMILES,"viability, T/C"
1,C=CC(=O)Nc1cc(Nc2nccc(-c3cn(C)c4ccccc34)n2)c(OC)cc1N(C)CCN(C)C,101% [middle of 4 runs]
2,CC(C)n1nc(-c2ccc3oc(N)nc3c2)c2c(N)ncnc21,96.2% [middle of 4 runs]
3,CCN1CCN(Cc2ccc(Nc3ncc(F)c(-c4cc(F)c5nc(C)n(C(C)C)c5c4)n3)nc2)CC1,102% [middle of 4 runs]
4,Nc1ccn(C2OC(CO)C(O)C2(F)F)c(=O)n1 (centres undefined),101% [middle of 4 runs]
5,O=C(c1ccc(F)c(F)c1Nc1ccc(I)cc1F)N1CC(O)([C@@H]2CCCCN2)C1,82% [middle of 4 runs]

# Same assay, conditions: compound 0.00949 µM; stronger effect = lower value
row,SMILES,"viability, T/C"
1,CC1(C)CCC(Nc2ncc(C(F)(F)F)c(-c3c[nH]c4c(P(C)(C)=O)c(C#N)ccc34)n2)CN1 (centres undefined),57.2% [middle of 4 runs]
2,CCc1c2c(nc3ccc(O)cc13)-c1cc3c(c(=O)n1C2)COC(=O)[C@]3(O)CC,19.9% [middle of 4 runs]
3,CCn1c(-c2cc(N3CCN(C)CC3)cnc2C(C)OC)c2c3cc(ccc31)-c1csc(n1)CC(NC(=O)C1CC1C)C(=O)N1CCCC(N1)C(=O)OCC(C)(C)C2 (centres undefined),37.5% [middle of 8 runs]

# Same assay, conditions: compound 0.01 µM; stronger effect = lower value
row,SMILES,"viability, T/C"
1,CC(C)n1nc(-c2ccc3oc(N)nc3c2)c2c(N)ncnc21,65.3% [middle of 4 runs]
2,Nc1ccn(C2OC(CO)C(O)C2(F)F)c(=O)n1 (centres undefined),79% [middle of 4 runs]
3,O=C(c1ccc(F)c(F)c1Nc1ccc(I)cc1F)N1CC(O)([C@@H]2CCCCN2)C1,71% [middle of 4 runs]

# Same assay, conditions: compound 0.03 µM; stronger effect = lower value
row,SMILES,"viability, T/C"
1,CC1(C)CCC(Nc2ncc(C(F)(F)F)c(-c3c[nH]c4c(P(C)(C)=O)c(C#N)ccc34)n2)CN1 (centres undefined),48.7% [middle of 4 runs]
2,CCc1c2c(nc3ccc(O)cc13)-c1cc3c(c(=O)n1C2)COC(=O)[C@]3(O)CC,10.1% [middle of 4 runs]
3,CCn1c(-c2cc(N3CCN(C)CC3)cnc2C(C)OC)c2c3cc(ccc31)-c1csc(n1)CC(NC(=O)C1CC1C)C(=O)N1CCCC(N1)C(=O)OCC(C)(C)C2 (centres undefined),21.3% [middle of 8 runs]
4,CCn1c(-c2cccnc2C(C)OC)c2c3cc(ccc31)N1CCOC(CC(NC(=O)C(C(C)C)N(C)C(=O)C3(F)CCN(C(=O)C#CC(C)(C)N(C)C)CC3)C(=O)N3CCCC(N3)C(=O)OCC(C)(C)C2)C1 (centres undefined),94.8% [middle of 8 runs]

# Same assay, conditions: compound 0.0316 µM; stronger effect = lower value
row,SMILES,"viability, T/C"
1,C#Cc1c(F)ccc2cc(O)cc(-c3ncc4c(N5CC6CCC(C5)N6)nc(OCC56CCCN5CC(F)C6)nc4c3F)c12 (centres undefined),64.5% [middle of 8 runs]
2,C=CC(=O)Nc1cc(Nc2nccc(-c3cn(C)c4ccccc34)n2)c(OC)cc1N(C)CCN(C)C,94.7% [middle of 4 runs]
3,CC(C)n1nc(-c2ccc3oc(N)nc3c2)c2c(N)ncnc21,44.3% [middle of 4 runs]
4,CCN1CCN(Cc2ccc(Nc3ncc(F)c(-c4cc(F)c5nc(C)n(C(C)C)c5c4)n3)nc2)CC1,87% [middle of 4 runs]
